Source: patent US12496348B2, “Small molecule target bromo/acetyl proteins and uses thereof” (DANA-FARBER CANCER INSTITUTE, INC., priority 2019, dated 2025)
Like-named read-outs stand apart in the source and are kept apart here. Each block holds one compound with its values, some of them ahead of it.

Legend:
H3K27ac = test: Western blot for H3K27ac levels in Kelly NB cells; type: cell-based; conditions: 24 hours; for H3K27ac / acetylation levels (immunoblot): concentration not given; for acetylation levels (immunoblot): at 1 μM
Protocol: (§1) Kelly Neuroblastoma cells were seeded at 1,000,000 cells per well in 6 well plates and were treated in a dose-dependent manner for 24 hours. Whole cell lysates were collected using ice cold lysis buffer [300 mM NaCl, 50 mM Tris-HCl, pH 7.5, 0.5% Triton X-100, 1% sodium dodecyl sulfate (SDS), 1 mM dithiothreitol (DTT) (Invitrogen™), Roche®'s cOmplete™ protease inhibitor cocktail (1:000), 25 units/mL Benzonase®] and blotted at a protein concentration of 30 μg for EP300 and CBP and 10 μg for histone H3 and H3K27ac. Lysates were also blotted for bromodomain-containing protein 4 (BRD4). Lysates were resolved in NuPAGE™ 3-8% Tris-Acetate polyacrylamide gels (EA03785BOX, Invitrogen™) for EP300 and CBP and Bolt 4-12% Bis-Tris polyacrylamide gels (NW04125BOX, Invitrogen™) for H3 and H3K27ac. Afterwards, gels were transferred to nitrocellulose membranes (LC2001, Invitrogen™). […] Visualization was performed on an Odyssey infrared imaging system (LiCor® Biosciences).

CBP = CBP (Homo sapiens (Human), UniProt Q92793); test: Western blot for CBP degradation in Kelly NB cells; type: cell-based; conditions: 24 hours
Protocol: as §1, with “Kelly Neuroblastoma cells were seeded at 1,000,000 cells per well in 6 well plates and were treated in a dose-dependent manner for 24 hours.” left out

[1] = system: Kelly Neuroblastoma cells; test: ATPlite Luminescence viability assay, Kelly neuroblastoma cells, 72 h; type: cell-based; conditions: for IC50 values (range in words): Kelly Neuroblastoma cell proliferation; for IC50: ATPlite
Protocol: Kelly Neuroblastoma cells were seeded at 1,000 cells per well in 384 well, white plates and were treated in a dose-dependent manner for 72 h.

EP300 = EP300 (Homo sapiens (Human), UniProt Q09472); test: Western blot for EP300 degradation in Kelly NB cells; type: cell-based; conditions: 24 hours
Protocol: as §1, with “Kelly Neuroblastoma cells were seeded at 1,000,000 cells per well in 6 well plates and were treated in a dose-dependent manner for 24 hours.” left out

CBP bromodomain = CBP bromodomain (Homo sapiens (Human), UniProt Q92793); test: CBP (Bromodomain) AlphaScreen Assay; type: binding; conditions: FIG. 6
Protocol: Assays were performed with minimal modifications from the manufacturer's protocol (PerkinElmer®, USA). All reagents were diluted in 50 mM 4-(2-hydroxyethyl)-1-piperazineethanesulfonic acid (HEPES), 150 mM NaCl, 0.1% w/v bovine serum albumin (BSA), 0.01% w/v Tween® 20, pH 7.5 and allowed to equilibrate to room temperature prior to addition to plates. After addition of AlphaScreen® acceptor beads to master solutions, all subsequent steps were performed under low light conditions. […] Plates were spun down at 150×g, 100 nL of compound in dimethyl sulfoxide (DMSO) from stock plates were added by pin transfer using a Janus® Workstation (PerkinElmer®, USA). The streptavidin-coated donor beads (10 ng/ml final) were added as with previous the solution in a 2×10 μL volume. Following this addition, plates were sealed with foil to prevent light exposure and evaporation. The plates were spun down again at 150×g.

[2] = target: bromodomain-containing protein 4 (BRD4) (Homo sapiens (Human), UniProt O60885); test: Western blot for BRD4 levels in Kelly NB cells; type: cell-based; conditions: 24 h, at 1 μM
Protocol: Kelly Neuroblastoma cells were seeded at 1,000,000 cells per well in 6 well plates and were treated in a dose-dependent manner for 24 hours. Whole cell lysates were collected using ice cold lysis buffer [300 mM NaCl, 50 mM Tris-HCl, pH 7.5, 0.5% Triton X-100, 1% sodium dodecyl sulfate (SDS), 1 mM dithiothreitol (DTT) (Invitrogen™), Roche®'s cOmplete™ protease inhibitor cocktail (1:000), 25 units/mL Benzonase®] and blotted at a protein concentration of 30 μg for EP300 and CBP and 10 μg for histone H3 and H3K27ac. Lysates were also blotted for bromodomain-containing protein 4 (BRD4). Lysates were resolved in NuPAGE™ 3-8% Tris-Acetate polyacrylamide gels (EA03785BOX, Invitrogen™) for EP300 and CBP and Bolt 4-12% Bis-Tris polyacrylamide gels (NW04125BOX, Invitrogen™) for H3 and H3K27ac. Afterwards, gels were transferred to nitrocellulose membranes (LC2001, Invitrogen™). Primary and secondary antibodies used included anti-p300 at 1:500 dilution (ab10485, Abcam®), anti-CBP at 1:500 dilution (D6C5, Cell Signaling Technology®), anti-Actin at 1:5000 dilution (3700S, Cell Signaling Technology®), anti-H3 at 1:1000 dilution (4499S, Cell Signaling Technology®), anti-H3K27ac at 1:1000 dilution (ab4729, Abcam®), IRDye®800 goat anti-rabbit at 1:5000 dilution (926-32211, LiCor® Biosciences) and IRDye®680 goat anti-mouse at 1:5000 dilution (926-68070, LiCor®). Visualization was performed on an Odyssey infrared imaging system (LiCor® Biosciences).

[3] = system: Kelly Neuroblastoma cells; test: Western blot experiment, cytotoxicity observed in Kelly NB cells; type: cell-based; conditions: 24 hours
Protocol: as §1

[4] = Kelly Neuroblastoma cells, class symbols, read-out: IC50 of inventive bispecific compounds
[5] = Kelly Neuroblastoma cells, read-out: IC50

CBP, sequence (Q92793 whole entry): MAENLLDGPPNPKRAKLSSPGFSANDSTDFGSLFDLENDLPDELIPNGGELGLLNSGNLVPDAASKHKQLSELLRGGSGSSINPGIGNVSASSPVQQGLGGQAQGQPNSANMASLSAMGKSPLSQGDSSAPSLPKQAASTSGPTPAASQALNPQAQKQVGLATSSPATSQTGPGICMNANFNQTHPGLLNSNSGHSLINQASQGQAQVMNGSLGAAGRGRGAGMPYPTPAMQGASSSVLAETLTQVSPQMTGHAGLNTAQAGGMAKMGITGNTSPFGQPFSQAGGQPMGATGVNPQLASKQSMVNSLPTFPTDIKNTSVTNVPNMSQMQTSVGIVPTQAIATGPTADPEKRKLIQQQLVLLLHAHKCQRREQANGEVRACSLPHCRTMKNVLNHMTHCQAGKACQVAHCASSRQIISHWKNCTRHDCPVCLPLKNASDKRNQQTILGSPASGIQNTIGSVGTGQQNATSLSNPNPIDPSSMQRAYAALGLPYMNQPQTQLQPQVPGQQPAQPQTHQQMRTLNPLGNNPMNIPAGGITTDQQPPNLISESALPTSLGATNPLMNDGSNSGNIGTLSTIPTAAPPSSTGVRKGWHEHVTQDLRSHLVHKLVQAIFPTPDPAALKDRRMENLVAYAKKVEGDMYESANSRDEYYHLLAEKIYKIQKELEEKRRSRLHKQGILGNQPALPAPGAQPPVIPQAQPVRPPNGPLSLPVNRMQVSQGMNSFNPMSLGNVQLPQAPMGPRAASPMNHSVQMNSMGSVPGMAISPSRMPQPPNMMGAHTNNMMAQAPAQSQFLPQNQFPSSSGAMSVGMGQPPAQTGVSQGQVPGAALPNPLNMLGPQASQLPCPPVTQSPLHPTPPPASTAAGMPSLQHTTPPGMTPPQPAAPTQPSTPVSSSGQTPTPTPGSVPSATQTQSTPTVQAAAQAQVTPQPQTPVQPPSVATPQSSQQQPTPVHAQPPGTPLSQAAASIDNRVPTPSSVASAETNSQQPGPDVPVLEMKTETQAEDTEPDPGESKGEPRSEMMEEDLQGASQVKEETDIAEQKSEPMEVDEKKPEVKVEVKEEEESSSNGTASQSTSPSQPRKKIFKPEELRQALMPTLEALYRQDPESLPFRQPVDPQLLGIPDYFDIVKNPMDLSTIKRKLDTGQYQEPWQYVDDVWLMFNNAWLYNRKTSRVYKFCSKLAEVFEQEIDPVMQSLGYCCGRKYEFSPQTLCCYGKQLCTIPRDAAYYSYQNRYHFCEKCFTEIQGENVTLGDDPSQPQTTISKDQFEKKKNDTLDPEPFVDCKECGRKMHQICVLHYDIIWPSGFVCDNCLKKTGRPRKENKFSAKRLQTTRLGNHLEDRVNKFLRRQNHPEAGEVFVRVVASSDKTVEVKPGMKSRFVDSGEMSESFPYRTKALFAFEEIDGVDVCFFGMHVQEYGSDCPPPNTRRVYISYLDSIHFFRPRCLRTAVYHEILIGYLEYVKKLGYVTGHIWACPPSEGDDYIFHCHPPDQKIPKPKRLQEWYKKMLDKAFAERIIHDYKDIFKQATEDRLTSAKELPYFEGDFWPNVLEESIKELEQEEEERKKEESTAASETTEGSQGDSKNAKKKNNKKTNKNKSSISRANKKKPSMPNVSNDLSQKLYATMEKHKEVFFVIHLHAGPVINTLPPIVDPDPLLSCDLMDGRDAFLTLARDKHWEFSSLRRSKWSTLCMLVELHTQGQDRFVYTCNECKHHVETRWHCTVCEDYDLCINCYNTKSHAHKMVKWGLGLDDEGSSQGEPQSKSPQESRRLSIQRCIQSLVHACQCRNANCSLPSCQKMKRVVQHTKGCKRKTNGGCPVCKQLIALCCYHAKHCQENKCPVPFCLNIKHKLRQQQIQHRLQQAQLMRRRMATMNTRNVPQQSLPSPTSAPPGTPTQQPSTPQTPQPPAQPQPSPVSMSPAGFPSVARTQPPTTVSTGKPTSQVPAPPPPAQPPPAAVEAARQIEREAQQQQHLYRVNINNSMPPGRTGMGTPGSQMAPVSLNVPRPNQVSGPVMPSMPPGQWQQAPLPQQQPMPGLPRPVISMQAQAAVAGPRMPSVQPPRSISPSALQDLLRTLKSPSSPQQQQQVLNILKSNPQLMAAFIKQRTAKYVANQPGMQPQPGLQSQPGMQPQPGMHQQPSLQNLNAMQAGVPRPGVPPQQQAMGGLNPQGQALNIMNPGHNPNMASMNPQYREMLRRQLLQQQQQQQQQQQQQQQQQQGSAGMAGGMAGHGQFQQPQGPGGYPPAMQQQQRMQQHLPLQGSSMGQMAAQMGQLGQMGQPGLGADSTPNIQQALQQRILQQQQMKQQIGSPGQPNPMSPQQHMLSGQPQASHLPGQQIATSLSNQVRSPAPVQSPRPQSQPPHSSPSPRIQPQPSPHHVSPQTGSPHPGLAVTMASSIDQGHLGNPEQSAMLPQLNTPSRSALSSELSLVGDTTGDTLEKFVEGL
EP300, sequence (Q09472 whole entry): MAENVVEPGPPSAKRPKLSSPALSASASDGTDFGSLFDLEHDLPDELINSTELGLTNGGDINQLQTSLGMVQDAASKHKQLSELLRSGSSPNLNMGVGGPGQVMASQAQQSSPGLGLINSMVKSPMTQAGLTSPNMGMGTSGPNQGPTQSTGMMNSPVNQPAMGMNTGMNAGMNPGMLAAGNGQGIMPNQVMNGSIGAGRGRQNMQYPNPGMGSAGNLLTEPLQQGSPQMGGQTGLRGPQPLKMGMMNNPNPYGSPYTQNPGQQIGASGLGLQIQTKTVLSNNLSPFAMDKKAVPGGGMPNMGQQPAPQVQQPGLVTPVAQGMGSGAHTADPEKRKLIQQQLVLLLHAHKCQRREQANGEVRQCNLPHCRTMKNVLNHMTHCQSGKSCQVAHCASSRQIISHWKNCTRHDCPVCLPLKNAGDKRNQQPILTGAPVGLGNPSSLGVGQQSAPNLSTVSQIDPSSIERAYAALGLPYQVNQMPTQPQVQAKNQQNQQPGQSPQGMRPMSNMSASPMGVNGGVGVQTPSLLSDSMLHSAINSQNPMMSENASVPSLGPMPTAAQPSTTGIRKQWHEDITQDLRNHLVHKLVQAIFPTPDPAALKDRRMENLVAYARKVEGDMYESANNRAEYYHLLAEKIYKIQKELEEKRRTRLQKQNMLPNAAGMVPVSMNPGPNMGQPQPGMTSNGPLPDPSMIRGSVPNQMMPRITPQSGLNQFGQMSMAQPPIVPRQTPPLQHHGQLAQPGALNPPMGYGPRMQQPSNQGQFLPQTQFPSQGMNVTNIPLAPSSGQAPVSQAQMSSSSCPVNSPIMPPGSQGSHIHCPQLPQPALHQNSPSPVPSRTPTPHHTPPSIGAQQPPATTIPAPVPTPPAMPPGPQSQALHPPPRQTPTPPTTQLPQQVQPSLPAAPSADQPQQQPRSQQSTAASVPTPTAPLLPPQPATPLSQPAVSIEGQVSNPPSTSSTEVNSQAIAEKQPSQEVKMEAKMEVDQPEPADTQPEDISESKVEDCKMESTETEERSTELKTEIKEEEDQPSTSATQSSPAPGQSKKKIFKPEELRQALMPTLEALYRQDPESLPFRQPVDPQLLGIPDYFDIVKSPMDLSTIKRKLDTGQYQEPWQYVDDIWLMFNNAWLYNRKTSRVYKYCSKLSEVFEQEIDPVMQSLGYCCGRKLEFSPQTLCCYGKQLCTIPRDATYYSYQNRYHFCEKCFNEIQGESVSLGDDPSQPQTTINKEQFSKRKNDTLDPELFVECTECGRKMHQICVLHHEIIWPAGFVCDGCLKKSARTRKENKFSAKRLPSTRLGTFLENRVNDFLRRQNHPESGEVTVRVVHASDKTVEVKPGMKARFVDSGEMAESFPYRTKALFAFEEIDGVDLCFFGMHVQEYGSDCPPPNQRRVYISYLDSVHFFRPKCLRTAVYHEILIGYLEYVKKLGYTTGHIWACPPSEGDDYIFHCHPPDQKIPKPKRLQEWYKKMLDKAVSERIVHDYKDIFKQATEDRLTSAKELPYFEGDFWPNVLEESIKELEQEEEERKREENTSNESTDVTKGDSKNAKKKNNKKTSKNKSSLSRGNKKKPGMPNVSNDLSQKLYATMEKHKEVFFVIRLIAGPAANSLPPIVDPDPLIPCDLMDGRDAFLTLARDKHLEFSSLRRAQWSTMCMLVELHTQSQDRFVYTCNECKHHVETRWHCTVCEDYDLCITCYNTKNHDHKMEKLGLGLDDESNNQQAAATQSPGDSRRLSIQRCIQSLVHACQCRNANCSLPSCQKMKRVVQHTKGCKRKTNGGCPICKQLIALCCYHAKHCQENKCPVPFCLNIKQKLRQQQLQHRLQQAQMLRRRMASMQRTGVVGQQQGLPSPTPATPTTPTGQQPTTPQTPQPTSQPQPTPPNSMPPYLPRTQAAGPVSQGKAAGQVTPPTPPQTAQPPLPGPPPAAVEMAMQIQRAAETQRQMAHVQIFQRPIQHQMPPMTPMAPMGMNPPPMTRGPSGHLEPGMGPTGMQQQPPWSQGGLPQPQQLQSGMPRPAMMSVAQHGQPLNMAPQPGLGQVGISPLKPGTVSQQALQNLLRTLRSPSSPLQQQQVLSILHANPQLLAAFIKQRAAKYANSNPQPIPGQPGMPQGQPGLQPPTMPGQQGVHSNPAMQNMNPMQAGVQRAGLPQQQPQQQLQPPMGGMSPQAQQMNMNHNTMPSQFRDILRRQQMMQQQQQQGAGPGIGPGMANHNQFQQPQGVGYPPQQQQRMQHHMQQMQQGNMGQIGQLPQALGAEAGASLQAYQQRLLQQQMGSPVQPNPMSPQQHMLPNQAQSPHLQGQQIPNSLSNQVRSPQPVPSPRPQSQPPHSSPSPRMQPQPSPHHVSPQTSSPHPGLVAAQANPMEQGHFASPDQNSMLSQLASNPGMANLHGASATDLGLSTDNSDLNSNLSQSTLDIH
CBP bromodomain, sequence (Q92793 1085-1192): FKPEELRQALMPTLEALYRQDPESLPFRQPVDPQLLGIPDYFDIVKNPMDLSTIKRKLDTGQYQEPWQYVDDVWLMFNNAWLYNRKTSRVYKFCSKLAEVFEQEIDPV

bound to CBP (bromodomain), range (CBP bromodomain): ~10 µM
Structure (SMILES): Cc1noc(C)c1-c1ccc2nc(-c3ccc(N4CCNCC4)cc3)c(NC3CCCCC3)n2c1.Cl [Int-2]
general cytotoxicity [3]: general cytotoxicity

IC50 [1, 4]: > 10000 nM
Structure (SMILES): Cc1noc(C)c1-c1ccc2c(c1)nc(CCc1ccc(NC(=O)CCCCCNc3cccc4c3C(=O)N(C3CCC(=O)NC3=O)C4=O)cc1)n2CC(C)N1CCOCC1 (stereo not drawn) [Compound 25, N-(4-(2-(5-(3,5-dimethylisoxazol-4-yl)-1-(2-morpholinopropyl)-1H-benzo[d]imidazol-2-yl)ethyl)phenyl)-6-((2-(2,6-dioxopiperidin-3-yl)-1,3-dioxoisoindolin-4-yl)amino)hexanamide]

IC50 [1, 4]: > 10000 nM
Structure (SMILES): Cc1noc(C)c1-c1ccc2c(c1)nc(CCc1ccc(NCCNC(=O)CCCCCNc3cccc4c3C(=O)N(C3CCC(=O)NC3=O)C4=O)cc1)n2CC(C)N1CCOCC1 (stereo not drawn) [Compound 28, N-(2-((4-(2-(5-(3,5-dimethylisoxazol-4-yl)-1-(2-morpholinopropyl)-1H-benzo[d]imidazol-2-yl)ethyl)phenyl)amino)ethyl)-6-((2-(2,6-dioxopiperidin-3-yl)-1,3-dioxoisoindolin-4-yl)amino)hexanamide]

IC50 [1, 4]: > 10000 nM
Structure (SMILES): Cc1noc(C)c1-c1ccc2c(c1)nc(CCc1ccc(NC(=O)CCCCCCCCCCCNc3cccc4c3C(=O)N(C3CCC(=O)NC3=O)C4=O)cc1)n2CCN1CCOCC1 (stereo not drawn) [Compound 23, N-(4-(2-(5-(3,5-dimethylisoxazol-4-yl)-1-(2-morpholinoethyl)-1H-benzo[d]imidazol-2-yl)ethyl)phenyl)-12-((2-(2,6-dioxopiperidin-3-yl)-1,3-dioxoisoindolin-4-yl)amino)dodecanamide]

More lines, now with the values behind:

Structure (SMILES): Cc1noc(C)c1-c1ccn2c(NCc3ccccc3)c(-c3ccc(N4CCN(C(=O)COc5cccc6c5C(=O)N(C5CCC(=O)NC5=O)C6=O)CC4)cc3)nc2c1 (stereo not drawn) [Compound 7, 4-(2-(4-(4-(3-(benzylamino)-7-(3,5-dimethylisoxazol-4-yl)imidazo[1,2-a]pyridin-2-yl)phenyl)piperazin-1-yl)-2-oxoethoxy)-2-(2,6-dioxopiperidin-3-yl)isoindoline-1,3-dione]
H3K27ac / acetylation levels (immunoblot) (H3K27ac): slight reduction | CBP degradation (immunoblot) (CBP; at 1 μM): noticeable degradation | IC50 values (range in words) [1]: micromolar and sub-micromolar range | IC50 [1, 4]: < 100 nM | IC50 [1, 5]: 33.1 nM | P300 degradation (immunoblot) (EP300; at 1 μM): noticeable degradation

Structure (SMILES): Cc1noc(C)c1-c1ccc2nc(-c3ccc(N4CCN(C(=O)CCOCCOCCOCCOCCOCCOCCNc5cccc6c5C(=O)N(C5CCC(=O)NC5=O)C6=O)CC4)cc3)c(NC3CCCCC3)n2c1 (stereo not drawn) [Compound 3, 4-((21-(4-(4-(3-(cyclohexylamino)-6-(3,5-dimethylisoxazol-4-yl)imidazo[1,2-a]pyridin-2-yl)phenyl)piperazin-1-yl)-21-oxo-3,6,9,12,15,18-hexaoxahenicosyl)amino)-2-(2,6-dioxopiperidin-3-yl)isoindoline-1,3-dione]
CBP degradation (immunoblot) (CBP; at 10 μM): some degradation | IC50 values (range in words) [1]: micromolar and sub-micromolar range | IC50 [1, 4]: 100 to 1000 nM | IC50 [1, 5]: 706 nM | P300 degradation (immunoblot) (EP300; at 10 μM): some degradation

Structure (SMILES): Cc1noc(C)c1-c1ccc2nc(-c3ccc(N4CCN(C(=O)CCOCCOCCOCCNc5cccc6c5C(=O)N(C5CCC(=O)NC5=O)C6=O)CC4)cc3)c(NC3CCCCC3)n2c1 (stereo not drawn) [Compound 2, 4-((2-(2-(2-(3-(4-(4-(3-(cyclohexylamino)-6-(3,5-dimethylisoxazol-4-yl)imidazo[1,2-a]pyridin-2-yl)phenyl)piperazin-1-yl)-3-oxopropoxy)ethoxy)ethoxy)ethyl)amino)-2-(2,6-dioxopiperidin-3-yl)isoindoline-1,3-dione]
H3K27ac / acetylation levels (immunoblot) (H3K27ac): evident reduction | CBP degradation (immunoblot) (CBP; concentration not given): potent degrader | IC50 [1, 4]: < 100 nM | IC50 [1, 5]: 91.8 ± 6.58 nM | IC50 potency relative to A485 ([1]; Kelly Neuroblastoma cells, more potent than A485): about 10 fold | EP300 degradation (immunoblot) (EP300; concentration not given): potent degrader | bound to CBP (bromodomain), range (CBP bromodomain): ~10 µM

Structure (SMILES): Cc1noc(C)c1-c1ccn2c(NC3CCCCC3)c(CCc3ccc(NC(=O)CCOCCOCCOCCNc4cccc5c4C(=O)N(C4CCC(=O)NC4=O)C5=O)cc3)nc2c1 (stereo not drawn) [Compound 8, N-(4-(2-(3-(cyclohexylamino)-7-(3,5-dimethylisoxazol-4-yl)imidazo[1,2-a]pyridin-2-yl)ethyl)phenyl)-3-(2-(2-(2-((2-(2,6-dioxopiperidin-3-yl)-1,3-dioxoisoindolin-4-yl)amino)ethoxy)ethoxy)ethoxy)propanamide]
acetylation levels (immunoblot) (H3K27ac): reduction | CBP degradation (immunoblot) (CBP; at 1 μM): noticeable degradation | IC50 [1, 4]: 100 to 1000 nM | BRD4 degradation (immunoblot) [2]: observed | P300 degradation (immunoblot) (EP300; at 1 μM): noticeable degradation

Structure (SMILES): Cc1noc(C)c1-c1ccn2c(NC3CCCCC3)c(CCc3ccc(NC(=O)COc4cccc5c4C(=O)N(C4CCC(=O)NC4=O)C5=O)cc3)nc2c1 (stereo not drawn) [Compound 12, N-(4-(2-(3-(cyclohexylamino)-7-(3,5-dimethylisoxazol-4-yl)imidazo[1,2-a]pyridin-2-yl)ethyl)phenyl)-2-((2-(2,6-dioxopiperidin-3-yl)-1,3-dioxoisoindolin-4-yl)oxy)acetamide]
acetylation levels (immunoblot) (H3K27ac): reduction | IC50 [1, 4]: 1000 to 10000 nM | BRD4 degradation (immunoblot) [2]: observed | P300 degradation (immunoblot) (EP300; at 1 μM): noticeable degradation

Structure (SMILES): Cc1noc(C)c1-c1ccn2c(NC3CCCCC3)c(CCc3ccc(NC(=O)CCCCCNc4cccc5c4C(=O)N(C4CCC(=O)NC4=O)C5=O)cc3)nc2c1 (stereo not drawn) [Compound 11, N-(4-(2-(3-(cyclohexylamino)-7-(3,5-dimethylisoxazol-4-yl)imidazo[1,2-a]pyridin-2-yl)ethyl)phenyl)-6-((2-(2,6-dioxopiperidin-3-yl)-1,3-dioxoisoindolin-4-yl)amino)hexanamide]
acetylation levels (immunoblot) (H3K27ac): reduction | CBP degradation (immunoblot) (CBP; at 1 μM): noticeable degradation | IC50 [1, 4]: 100 to 1000 nM | BRD4 degradation (immunoblot) [2]: observed | P300 degradation (immunoblot) (EP300; at 1 μM): noticeable degradation

Structure (SMILES): Cc1noc(C)c1-c1ccn2c(NCc3ccccc3)c(-c3ccc(N4CCN(C(=O)CCOCCOCCOCCNc5cccc6c5C(=O)N(C5CCC(=O)NC5=O)C6=O)CC4)cc3)nc2c1 (stereo not drawn) [Compound 6, 4-((2-(2-(2-(3-(4-(4-(3-(benzylamino)-7-(3,5-dimethylisoxazol-4-yl)imidazopyridin-2-yl)phenyl)piperazin-1-yl)-3-oxopropoxy)ethoxy)ethoxy)ethyl)amino)-2-(2,6-dioxopiperidin-3-yl)isoindoline-1,3-dione]
IC50 [1, 4]: 1000 to 10000 nM | IC50 [1, 5]: 1270 nM
